Positions of bridges follow the written chain, without caps; N, C: chain ends. Residues, ends and D or L forms follow the SMILES beside them.
Legend:
AeCNMaR-1b (AAEL018316) = AeCNMaR-1b (AAEL018316) (Aedes aegypti, UniProt A0A1S4G7J8); experiment: Receptor activation, aequorin luminescence in CHO-K1 aeq cells expressing AeCNMaR-1b; type: cell-based
Excerpt: The CNMa peptide was synthesized and HPLC purified (>90% purity) by Royobiotechs (Shanghai, China) based on the published sequence of the AeCNMa peptide sequence. Both the amidated (YMSLCHFKLCNMa) and the non-amidated (YMSLCHFKLCNM) were produced with a disulfide bridge between cysteines 5 and 10. The complete coding sequence of the two putative Ae. aegypti CNMa receptors (VectorBase genes AAEL024199 and AAEL018316, which we henceforth refer to as AeCNMaR-1a and AeCNMaR-1b, respectively) were commercially synthesized (Integrated DNA Technologies) and subsequently subcloned into a pcDNA3.1+ mammalian expression vector [24]. A Chinese hamster ovary cell line stably expressing the calcium-dependent bioluminescent protein aequorin (CHO-K1 aeq) was grown in Dulbecco’s modified eagles medium: nutrient F12 (DMEM:F12) media containing 10% heat-inactivated fetal bovine serum (FBS; Wisent, St. Bruno, QC, Canada), 200 μg/mL geneticin, and an antimycotic-antibiotic mixture as described previously. […]
Other Ae. aegypti peptides used in this study included “capability” (CAPA)-1 (GPTVGLFAFPRV-NH2), CAPA-2 (pQGLVPFPRV-NH2), AedaeCAPA-pyrokinin (PK) 1 (AGNSGANSGMWFGPRL-NH2), adipokinetic/corazonin-like peptide (ACP; pQVTFSRDWNA-NH2), adipokinetic hormone (AKH) (pQLTFTPSW-NH2), and corazonin (CRZ; pQTFQYSRGWTN-NH2). […] Single concentrations of the various peptides were loaded into individual wells of white 96-well luminescence plates (Greiner Bio-One, Frickenhausen, Germany) with each peptide concentration tested in quadruplicate. CHO-K1 aeq cells expressing either of the two AeCNMa receptors or mCherry were prepared for the functional assay, as described above, and injected into each well of the 96-well luminescence plates by an automated injector unit integrated with the Synergy 2 Multi-Mode Microplate Reader (BioTek, Winooski, VT, USA). The kinetic luminescent response was measured for 10 s immediately following the application of the cells into the wells containing the different peptide treatments or the negative (i.e., BSA media alone) or positive (i.e., 50 μM ATP) controls as described previously. Data was assembled in Microsoft Excel and then analyzed in GraphPad Prism 7.02 (GraphPad Software, San Diego, CA, USA) where the dose–response curves from multiple biological replicates were used to determine the half maximal effective concentrations (EC50).

AeCNMaR-1a (AAEL024199) = AeCNMaR-1a (AAEL024199) (Aedes aegypti, UniProt A0A6I8U3V2); experiment: Receptor activation, aequorin luminescence in CHO-K1 aeq cells expressing AeCNMaR-1a; type: cell-based
AeCNMaR-1a (AAEL024199), sequence (A0A6I8U3V2 entry or part of it): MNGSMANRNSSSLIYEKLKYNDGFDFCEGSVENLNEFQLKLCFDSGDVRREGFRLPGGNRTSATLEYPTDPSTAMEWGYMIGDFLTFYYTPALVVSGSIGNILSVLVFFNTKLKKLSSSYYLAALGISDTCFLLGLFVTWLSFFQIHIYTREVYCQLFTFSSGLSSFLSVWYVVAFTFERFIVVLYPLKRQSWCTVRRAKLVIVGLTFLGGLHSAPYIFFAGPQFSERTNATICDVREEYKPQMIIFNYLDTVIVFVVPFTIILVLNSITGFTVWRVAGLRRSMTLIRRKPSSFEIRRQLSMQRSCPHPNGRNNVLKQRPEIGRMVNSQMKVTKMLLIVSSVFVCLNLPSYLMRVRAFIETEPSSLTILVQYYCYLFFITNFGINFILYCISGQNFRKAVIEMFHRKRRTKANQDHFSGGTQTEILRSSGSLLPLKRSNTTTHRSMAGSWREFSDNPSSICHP
Excerpt: The CNMa peptide was synthesized and HPLC purified (>90% purity) by Royobiotechs (Shanghai, China) based on the published sequence of the AeCNMa peptide sequence. Both the amidated (YMSLCHFKLCNMa) and the non-amidated (YMSLCHFKLCNM) were produced with a disulfide bridge between cysteines 5 and 10. The complete coding sequence of the two putative Ae. aegypti CNMa receptors (VectorBase genes AAEL024199 and AAEL018316, which we henceforth refer to as AeCNMaR-1a and AeCNMaR-1b, respectively) were commercially synthesized (Integrated DNA Technologies) and subsequently subcloned into a pcDNA3.1+ mammalian expression vector [24]. A Chinese hamster ovary cell line stably expressing the calcium-dependent bioluminescent protein aequorin (CHO-K1 aeq) was grown in Dulbecco’s modified eagles medium: nutrient F12 (DMEM:F12) media containing 10% heat-inactivated fetal bovine serum (FBS; Wisent, St. Bruno, QC, Canada), 200 μg/mL geneticin, and an antimycotic-antibiotic mixture as described previously. When cells reached 80–90% confluency, they were transfected using Lipofectamine 3000 transfection reagent following manufacturer recommendations (Life Technologies, Burlington, ON, Canada) to transiently express a mammalian construct in pcDNA3.1+ containing either of the two candidate CNMa receptors or mCherry (pcDNA3.1+ mCherry was a gift from Scott Gradia, Addgene plasmid #30125), the latter of which served as a negative control for the receptor functional assay. After 48 h following transfection, CHO-K1 aeq cells were harvested by dislodging from culture flasks using Dulbecco’s PBS containing EDTA and subsequently resuspended in receptor assay media.
Other Ae. aegypti peptides used in this study included “capability” (CAPA)-1 (GPTVGLFAFPRV-NH2), CAPA-2 (pQGLVPFPRV-NH2), AedaeCAPA-pyrokinin (PK) 1 (AGNSGANSGMWFGPRL-NH2), adipokinetic/corazonin-like peptide (ACP; pQVTFSRDWNA-NH2), adipokinetic hormone (AKH) (pQLTFTPSW-NH2), and corazonin (CRZ; pQTFQYSRGWTN-NH2). Serial dilutions of the peptide stocks were prepared in bovine serum albumin (BSA) assay media (DMEM:F12 media + 0.1% BSA + 1× antibiotic-antimycotic) to test concentrations ranging from 10 pM to 50 μM. Single concentrations of the various peptides were loaded into individual wells of white 96-well luminescence plates (Greiner Bio-One, Frickenhausen, Germany) with each peptide concentration tested in quadruplicate. CHO-K1 aeq cells expressing either of the two AeCNMa receptors or mCherry were prepared for the functional assay, as described above, and injected into each well of the 96-well luminescence plates by an automated injector unit integrated with the Synergy 2 Multi-Mode Microplate Reader (BioTek, Winooski, VT, USA). The kinetic luminescent response was measured for 10 s immediately following the application of the cells into the wells containing the different peptide treatments or the negative (i.e., BSA media alone) or positive (i.e., 50 μM ATP) controls as described previously. Data was assembled in Microsoft Excel and then analyzed in GraphPad Prism 7.02 (GraphPad Software, San Diego, CA, USA) where the dose–response curves from multiple biological replicates were used to determine the half maximal effective concentrations (EC50).

AeCNMaR-1b (AAEL018316), sequence (A0A1S4G7J8 entry or part of it): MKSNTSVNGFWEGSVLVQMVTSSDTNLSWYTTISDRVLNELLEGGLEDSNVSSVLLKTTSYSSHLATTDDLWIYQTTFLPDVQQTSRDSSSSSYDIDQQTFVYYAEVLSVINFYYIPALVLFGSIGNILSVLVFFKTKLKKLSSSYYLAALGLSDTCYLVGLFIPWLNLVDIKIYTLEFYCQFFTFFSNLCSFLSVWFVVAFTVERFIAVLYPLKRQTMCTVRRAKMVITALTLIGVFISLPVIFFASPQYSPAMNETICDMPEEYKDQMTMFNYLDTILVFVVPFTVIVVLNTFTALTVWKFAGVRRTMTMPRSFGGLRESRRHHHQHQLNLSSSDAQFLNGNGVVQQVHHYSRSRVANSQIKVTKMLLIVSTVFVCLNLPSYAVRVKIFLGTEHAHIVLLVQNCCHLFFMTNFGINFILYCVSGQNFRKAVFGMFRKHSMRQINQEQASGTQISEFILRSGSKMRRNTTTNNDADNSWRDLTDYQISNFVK

Compound `CSCC[C@H](NC(=O)[C@H](CC(N)=O)NC(=O)[C@@H]1CSSC[C@H](NC(=O)[C@H](CC(C)C)NC(=O)[C@H](CO)NC(=O)[C@H](CCSC)NC(=O)[C@@H](N)Cc2ccc(O)cc2)C(=O)N[C@@H](Cc2c[nH]cn2)C(=O)N[C@@H](Cc2ccccc2)C(=O)N[C@@H](CCCCN)C(=O)N[C@@H](CC(C)C)C(=O)N1)C(=O)O` [AeCNM, YMSLCHFKLCNM] (H-YMSLCHFKLCNM-OH; disulfide 5-10) has an EC50 (AeCNMaR-1b (AAEL018316)) of 125 nM and an EC50 (AeCNMaR-1a (AAEL024199)) of 46.3 nM.

— publication PMC8955854, “The Peptide Hormone CNMa Influences Egg Production in the Mosquito Aedes aegypti” (Insects, 2022)
